In patent publication US11737999B2, “Amino acid compositions and methods for the treatment of post-acute sequelae of COVID-19” (AXCELLA HEALTH INC., priority 2021, dated 2023):

Tests used:
[1] = tested on: IL-6; assay: IL-6 cytokine secretion in primary human hepatic stellate cells stimulated with TNFα; type: cell-based; conditions: hepatic stellate cells, two donors
[2] = tested on: TNF-α; assay: LPS-induced TNF-α secretion in primary human monocyte-derived macrophages; conditions: for TNF-α Measurements Mean (baseline subtracted): 0.15 ng/mL LPS
[3] = tested on: IL-6; assay: LPS-induced IL-6 secretion in primary human monocyte-derived macrophages; conditions: for IL-6 Measurements, Mean: 0.15 ng/mL LPS, baseline subtracted values
[4] = tested on: MCP-1; assay: MCP-1 chemokine secretion in primary human hepatic stellate cells stimulated with TNFα; type: cell-based; conditions: hepatic stellate cells, two donors
[5] = tested on: MCP1/CCL2; assay: MCP1/CCL2 secretion by ELISA in primary human hepatocytes with FFA + TNFα; type: cell-based
[6] = tested on: Col1a1; assay: Col1a1 gene expression (RT-qPCR) in primary human hepatic stellate cells stimulated with TGFβ1; type: cell-based
[7] = tested on: Procollagen Iα1; assay: Procollagen Iα1 secretion (ELISA) in primary human hepatic stellate cells stimulated with TGFβ1; type: cell-based; conditions: for Procollagen lα1 Secretion (Fold Change of 1X), Mean: first donor, TGFβ1 3 ng/mL 24 h
[8] = hepatic stellate cells, three donors

CC(=O)N[C@@H](CS)C(=O)O [N-Acetyl Cysteine, N-acetylcysteine]
IL-6 secretion (summary in words) [1]: reduced IL-6 secretion in both donors but was only statistically significant in one of two donors | LPS-induced TNF-α secretion (summary in words) ([2]; Donor 1): significantly reduced LPS-induced TNF-α secretion | TNF-α Measurements Mean (baseline subtracted) ([2]; Donor 1, Conc. 0 X (baseline)): 0 | TNF-α Measurements Mean (baseline subtracted) ([2]; Donor 1, Conc. 5 X): −326.24 | TNF-α Measurements Mean (baseline subtracted) ([2]; Donor 1, Conc. 10 X): −446.88 | TNF-α Measurements Mean (baseline subtracted) ([2]; Donor 1, Conc. 20 X): −561.33 | TNF-α Measurements Mean (baseline subtracted) ([2]; Donor 1, Conc. 40 X): −644.49 | LPS-induced TNF-α secretion (summary in words) ([2]; Donor 2): significantly reduced LPS-induced TNF-α secretion | TNF-α Measurements Mean (baseline subtracted) ([2]; Donor 2, Conc. 0 X (baseline)): 9.47E−15 | TNF-α Measurements Mean (baseline subtracted) ([2]; Donor 2, Conc. 5 X): −54.1596 | TNF-α Measurements Mean (baseline subtracted) ([2]; Donor 2, Conc. 10 X): −70.8382 | TNF-α Measurements Mean (baseline subtracted) ([2]; Donor 2, Conc. 20 X): −88.6528 | TNF-α Measurements Mean (baseline subtracted) ([2]; Donor 2, Conc. 40 X): −103.984 | LPS-induced TNF-α secretion (summary in words) ([2]; Donor 3): significantly reduced LPS-induced TNF-α secretion | TNF-α Measurements Mean (baseline subtracted) ([2]; Donor 3, Conc. 0 X (baseline)): 4.74E−15 | TNF-α Measurements Mean (baseline subtracted) ([2]; Donor 3, Conc. 5 X): −33.6246 | TNF-α Measurements Mean (baseline subtracted) ([2]; Donor 3, Conc. 10 X): −41.7266 | TNF-α Measurements Mean (baseline subtracted) ([2]; Donor 3, Conc. 20 X): −48.4373 | TNF-α Measurements Mean (baseline subtracted) ([2]; Donor 3, Conc. 40 X): −55.3093 | LPS-induced IL-6 secretion (summary in words) ([3]; Donor 1): significantly reduced LPS-induced IL-6 secretion | LPS-induced IL-6 secretion (summary in words) ([3]; Donor 2): significantly reduced LPS-induced IL-6 secretion | IL-6 Measurements, Mean ([3]; Donor 2, Conc. 5 X): −0.7946 | IL-6 Measurements, Mean ([3]; Donor 2, Conc. 10 X): −9.751 | IL-6 Measurements, Mean ([3]; Donor 2, Conc. 40 X): −33.7585 | LPS-induced IL-6 secretion (summary in words) ([3]; Donor 3): significantly reduced LPS-induced IL-6 secretion | MCP-1 secretion (summary in words) [4]: significantly reduced MCP-1 secretion in both donors | MCP1 expression relative to Control, Mean ([5]; Donor 1, Conc. 1000 μM): −0.7629 | MCP1 expression relative to Control, Mean ([5]; Donor 1, Conc. 2500 μM): −2.498 | MCP1 expression relative to Control, Mean ([5]; Donor 1, Conc. 5000 μM): −10.8919 | MCP1 expression relative to Control, Mean ([5]; Donor 1, Conc. 10000 μM): −17.6065 | MCP1 expression relative to Control, Mean ([5]; Donor 2, Conc. 1000 μM): 1.602 | MCP1 expression relative to Control, Mean ([5]; Donor 2, Conc. 2500 μM): −4.0591 | MCP1 expression relative to Control, Mean ([5]; Donor 2, Conc. 5000 μM): −10.5725 | MCP1 expression relative to Control, Mean ([5]; Donor 2, Conc. 10000 μM): −28.4419 | MCP1/CCL2 secretion (summary in words) ([5]; primary human hepatocytes, two healthy donors): significantly decrease MCP1/CCL2 secretion | Col1a1 Fold Expression Relative to Control, Mean ([6]; first donor, 1000 μM, single amino acid): 1.00 fold | Col1a1 Fold Expression Relative to Control, Mean ([6]; first donor, 10000 μM, single amino acid): 0.76 fold | Col1a1 Fold Expression Relative to Control, Mean ([6]; first donor, 5X, normalized to Gapdh, TGFβ1 3 ng/mL 24 h): 1.00 fold | Col1a1 Fold Expression Relative to Control, Mean ([6]; first donor, 10X, normalized to Gapdh, TGFβ1 3 ng/mL 24 h): 1.07 fold | Col1a1 Fold Expression Relative to Control, Mean ([6]; first donor, 20X, normalized to Gapdh, TGFβ1 3 ng/mL 24 h): 1.02 fold | Col1a1 Fold Expression Relative to Control, Mean ([6]; first donor, 40X, normalized to Gapdh, TGFβ1 3 ng/mL 24 h): 0.76 fold | Col1a1 gene expression (summary in words) [6, 8]: significantly reduced Col1a1 gene expression in all three donors | Col1a1 Fold Expression Relative to Control, Mean ([6]; second donor (Table 27), 1000 μM, single amino acid): 0.69 fold | Col1a1 Fold Expression Relative to Control, Mean ([6]; second donor (Table 27), 2500 μM, single amino acid): 0.69 fold | Col1a1 Fold Expression Relative to Control, Mean ([6]; second donor (Table 27), 5000 μM, single amino acid): 0.69 fold | Col1a1 Fold Expression Relative to Control, Mean ([6]; second donor (Table 27), 10000 μM, single amino acid): 0.57 fold | Col1a1 Fold Expression Relative to Control, Mean ([6]; second donor (Table 29), 1000 μM, single amino acid): 0.91 fold | Col1a1 Fold Expression Relative to Control, Mean ([6]; second donor (Table 29), 2500 μM, single amino acid): 0.82 fold | Col1a1 Fold Expression Relative to Control, Mean ([6]; second donor (Table 29), 5000 μM, single amino acid): 0.73 fold | Col1a1 Fold Expression Relative to Control, Mean ([6]; second donor (Table 29), 10000 μM, single amino acid): 0.62 fold | Col1a1 Fold Expression Relative to Control, Mean ([6]; second donor, 5X, normalized to Gapdh, TGFβ1 3 ng/mL 24 h): 0.69 fold | Col1a1 Fold Expression Relative to Control, Mean ([6]; second donor, 10X, normalized to Gapdh, TGFβ1 3 ng/mL 24 h): 0.69 fold | Col1a1 Fold Expression Relative to Control, Mean ([6]; second donor, 20X, normalized to Gapdh, TGFβ1 3 ng/mL 24 h): 0.69 fold | Col1a1 Fold Expression Relative to Control, Mean ([6]; second donor, 40X, normalized to Gapdh, TGFβ1 3 ng/mL 24 h): 0.57 fold | Col1a1 Fold Expression Relative to Control, Mean ([6]; third donor, 5X, normalized to Gapdh, TGFβ1 3 ng/mL 24 h): 0.91 fold | Col1a1 Fold Expression Relative to Control, Mean ([6]; third donor, 10X, normalized to Gapdh, TGFβ1 3 ng/mL 24 h): 0.82 fold | Col1a1 Fold Expression Relative to Control, Mean ([6]; third donor, 20X, normalized to Gapdh, TGFβ1 3 ng/mL 24 h): 0.73 fold | Col1a1 Fold Expression Relative to Control, Mean ([6]; third donor, 40X, normalized to Gapdh, TGFβ1 3 ng/mL 24 h): 0.62 fold | Procollagen lα1 Secretion (Fold Change of 1X), Mean ([7]; 5X): 0.9175 fold | Procollagen lα1 Secretion (Fold Change of 1X), Mean ([7]; 10X): 0.7939 fold | Procollagen lα1 Secretion (Fold Change of 1X), Mean ([7]; 20X): 0.6593 fold | Procollagen lα1 Secretion (Fold Change of 1X), Mean ([7]; 40X): 0.5076 fold | procollagen Iα1 secretion (summary in words) [7, 8]: significantly decrease procollagen Iα1 secretion in two of the three donors | Procollagen Iα1 Secretion, Mean ([7]; second donor, Conc. 5 X): 0.8387 Fold Change of 1X | Procollagen Iα1 Secretion, Mean ([7]; second donor, Conc. 10 X): 0.8877 Fold Change of 1X | Procollagen Iα1 Secretion, Mean ([7]; second donor, Conc. 20 X): 0.7378 Fold Change of 1X | Procollagen Iα1 Secretion, Mean ([7]; second donor, Conc. 40 X): 0.8383 Fold Change of 1X | Procollagen Iα1 Secretion, Mean ([7]; third donor, Conc. 5 X): 1.0897 Fold Change of 1× | Procollagen Iα1 Secretion, Mean ([7]; third donor, Conc. 10 X): 0.9391 Fold Change of 1× | Procollagen Iα1 Secretion, Mean ([7]; third donor, Conc. 20 X): 0.8521 Fold Change of 1× | Procollagen Iα1 Secretion, Mean ([7]; third donor, Conc. 40 X): 0.6962 Fold Change of 1×
